Read-outs that look alike come from different tables or passages of the source.
Key:
[1] = test system: L. braziliensis
Text: Golden hamsters (Mesocricetus auratus) were purchased from Charles River Laboratories (Wilmington MA, USA) and bred under specific pathogen-free conditions at the animal facility unit of the Universidad de Antioquia in Medellín, Colombia. Six- to eight-week-old, male, and female hamsters were used for the experiments. Animal experimentation protocols including handling of the animals, sample collection, and euthanasia were done in compliance of the Center for Diseases Control and Prevention guidelines for Safe Work Practices in Human and Animal Medical Diagnostic Laboratories and ARRIVE guidelines (Percie du Sert et al. [2020b]; Khairani et al. [2022]) and approved by the Institutional Ethical Committee for animal experimentation (Act No. 152 of June 01, 2023) (Percie du Sert et al. [2020a]; Khairani et al. [2022]).
Hamsters were anesthetized with ketamine (80 mg/kg, i.p.) and xylazine (15 mg/Kg) before infection and then, ∼1 × 10^8 promastigotes in stationary phase (6 days-old growth) were inoculated into the dorsum dermis (Robledo et al. [2012]). When hamsters developed ulcers larger than 12.5 mm^2, hamsters were randomly distributed into 4 groups (n = 6, each): (1) group treated with QUE (1 mg/day), (2) group treated with PIP (2.5 mg/day), (3) group treated with CUR (1.5 mg/day), (4) group treated with meglumine antimoniate (treatment control group, 200 µg/mL, intralesional). No vehicle control group was included in the present study because castor oil additive is a nonionic surfactant commonly used as an excipient in pharmaceutical formulations, particularly in solubilizing poorly water-soluble drugs. It is widely used as an ingredient in cosmetics for its conditioning properties, based on occlusive action, reducing water loss, and having a nourishing effect on the skin, hair, and nails (Marwat et al. [2017]; Khairani et al. [2022]).
Hamsters were treated daily with 40 µL of the corresponding formulation for 2 weeks, applying it directly over the lesion, while hamsters treated with meglumine antimoniate received treatment three times per week for 4 weeks. Lesion area was measured every week for 90 days with an electronic digital caliper. The body weight gain or loss was supervised every 2 weeks during the study. At the end of the study, hamsters were euthanized with an i.p. injection of ketamine (600 mg/kg) and xylazine (30 mg/kg). The experiments were carried out under normal laboratory lighting conditions. After necropsy, biopsies from healed and unhealed ulcers were removed and fixed in 10% buffered formalin, processed, and stained with hematoxylin–eosin (H-E) stain for histopathology analysis. The changes were analyzed under a standard optical microscope.

[2] = MTT cytotoxicity assay in uninfected U-937 macrophages; details: human
Protocol: (§1) U-937 (CRL-1593.2™) macrophages (ATCC, Manassas, VA, USA) were cultured in RPMI-1640 medium supplemented with 10% of FBS and incubated at 37 °C in 5% CO2, 95% humidity atmosphere. U-937 cells in the exponential growth phase were recovered, and washed by centrifugation at 1800 rpm for 10 min at room temperature; the pellet was then resuspended in supplemented RPMI 1640 medium and counted in a Neubauer chamber. The number was adjusted to 1 × 10^6 cells per mL and 100 µL was dispensed into each well of a 96-well plate. Then, another 100 µL of each serial dilution of QUE, PIP, CUR, doxorubicin, and amphotericin B was added to each well by triplicate and plates were incubated at 37 °C 5% CO2, 95% humidity atmosphere for 48 h.
(§2) The MTT solution is then added to the treated cells, where the yellow MTT is reduced to purple formazan by a variety of mitochondrial and cytosolic enzymes that are operational in viable cells. After 3 h of incubation with MTT, the formazan precipitates. Consequently, the growing medium was removed, the formazan was dissolved in DMSO, and the absorbance of the solution was measured at 570 nm using a microplate reader spectrophotometer (Varioskan Flash, Thermo Fisher Scientific).
(§3) Cells exposed to the standard cytotoxic drug doxorubicin were used as an internal control for toxicity (positive control) while cells incubated in the absence of any compound or drug were used as a control for viability (negative control). A solution of 0.5% DMSO was used as a blank solution. Non-specific absorbance was corrected by subtracting absorbance (OD) of the blank. Determinations were done by triplicate in at least two independent experiments.
(§4) The OD of viable cells that remained after treatment was compared to the OD of control cells that were not exposed to the drug. The LC50 (median lethal concentration) values and their statistical errors were calculated based on triplicates of the measurement in the independent assays. The LC50 values were determined by non-linear regression using Prism GraphPad 10.
(§5) The LC50 and the EC50 were calculated by Probit analysis using GraphPad Prism 10 (San Diego, CA, USA). Both cytotoxicity and leishmanicidal activity were defined by ranges of values of LC50 and EC50 in terms of high, moderate, or low as follows: high cytotoxicity for LC50 values < 100 µM, moderate cytotoxicity for LC50 values > 100 µM but < 200 µM, and low cytotoxicity for LC50 values > 200 µM. […] In addition, the cytotoxicity in U937 macrophages was correlated with the leishmanicidal activity by calculating the Selectivity Index (SI), using the equation: SI = LC50/EC50 (Indrayanto et al. [2021]).

[3] = test system: intracellular amastigotes of L. braziliensis; assay: In vitro leishmanicidal activity against intracellular amastigotes in infected U-937 macrophages (flow cytometry); type: cell-based, Leishmania braziliensis; details: for SI (Selectivity Index = LC50/EC50): LC50 U-937 / EC50 L. braziliensis amastigotes; for EC50: Leishmania braziliensis; for Leishmanicidal activity: class by EC50 on intracellular amastigotes of L. braziliensis
Protocol: Infective L. braziliensis (MHOM/CO/88/UA301-eGFP) (Pulido et al. [2012]) were cultured in Novy-MacNeal-Nicolle (NNN) biphasic medium at 26 °C for 3 passages maximum. U-937 cells, prepared as described in the previous section, were adjusted to approximately 3 × 10^5 cells per mL of supplemented RPMI 1640 medium containing […] of PMA to induce cell adherence. One mL was dispensed into each well of a 24-well plate and platters were incubated at 37 °C in % CO2, 95% humidity atmosphere for 72 h. Then, adherent cells were infected with fluorescent promastigotes of L. braziliensis in a 15:1 parasite to cell ratio. Plates were incubated again at 34 °C and % CO2, 95% humidity atmosphere. After 24 h, non-phagocytosed parasites were washed by pipetting phosphate buffered solution (PBS) in the plate at room temperature and 500 µL of fresh complete RPMI 1640 medium was added. Then, 500 µL of each serial dilution of QUE, PIP, CUR, and amphotericin B was added to each well and plates were incubated at 34 °C with % CO2, 95% humidity atmosphere. The EC50, the median effective concentration to induce […] killing of the intracellular amastigotes in infected cells, was measured by Flow cytometry at 488 nm of excitation and 525 nm of emission. After 48 h of incubation, cells were harvested with cold dissociation buffer (1x PBS with 2% EDTA) and the harvested cells were washed with buffer (1 × PBS with 2% FBS), and results were analyzed by FlowJo 10. The EC50 was determined with a non-lineal regression using Prism GraphPad 10.
as §5

[4] = test system: L. braziliensis-induced cutaneous leishmaniasis ulcers; assay: Histopathological analysis (H-E) of healed ulcers from treated hamsters; type: in vivo, golden hamsters (Mesocricetus auratus); design: key to Dermis: oedema (grade) / Dermis: granulomatous inflammation (grade) / Epidermis: orthokeratotic hyperkeratosis (grade) / Epidermis: spongiosis (grade) / Epidermis: ulcer (grade) / Dermis: neovascularization (grade) / Dermis: fibroplasia (grade) / Dermis: leukocytic infiltrate (grade): 0, absent; 1, mild; 2, mild to moderate; 3, moderate; 4, moderate to severe; 5, severe; details: healed ulcer after topical treatment
Protocol: The changes were analyzed under a standard optical microscope.

[5] = test system: macrophages; design: method as in Ferreira et al. [2011]; details: ref Ferreira et al. [2011]; cited from earlier work
[6] = test system: U-937 cells; assay: MTT cytotoxicity assay in uninfected U-937 macrophages; details: class by LC50 in U-937 macrophages
Protocol: as §1, §2, §3, §4, §5

[7] = test system: L. amazonensis amastigotes; design: method as in Ferreira et al. [2011]; details: ref Ferreira et al. [2011], read-out: EC50 for the amastigote stage; cited from earlier work
[8] = intracellular amastigotes of L. braziliensis in U-937 macrophages, 48 h, read-out: EC50 (Median Effective Concentration)
[9] = topical in castor oil daily for 15 days, QUE 1 mg/day, CUR 1.5 mg/day, PIP 2.5 mg/day, n = 6, followed 90 days
[10] = intralesional 200 µg/mL three times per week for 4 weeks, n = 6
[11] = intralesional 200 µg/mL, individual hamster

Molecule	CC50 at 48 h [2]	SI (Selectivity Index = LC50/EC50) [3]	EC50 [3, 8]	Leishmanicidal activity [3]	therapeutic response (hamsters cured) [1, 9]	Dermis: fibroplasia (grade) [4]	Dermis: granulomatous inflammation (grade) [4]	Dermis: leukocytic infiltrate (grade) [4]	Dermis: neovascularization (grade) [4]	Dermis: oedema (grade) [4]	Epidermis: orthokeratotic hyperkeratosis (grade) [4]	Epidermis: spongiosis (grade) [4]	Epidermis: ulcer (grade) [4]	also measured
Castor oil														resolution of CL lesions ([1]; hamster, in vivo): has not shown resolution of the lesions
C[C@@H]1[C@H](O)[C@@H](C)/C=C/C=C/C=C/C=C/C=C/C=C/C=C/[C@H](O[C@@H]2O[C@H](C)[C@@H](O)[C@H](N)[C@@H]2O)C[C@@H]2O[C@](O)(C[C@@H](O)C[C@@H](O)[C@H](O)CC[C@@H](O)C[C@@H](O)CC(=O)O[C@H]1C)C[C@H](O)[C@H]2C(=O)O [AMB, Amphotericin B, reference compound]	56.1 ± 5.8 µM	172.7	0.32 ± 0.01 µM	High (high activity corresponds to EC50 values < 50 µM)										
COc1cc(/C=C/C(=O)CC(=O)/C=C/c2ccc(O)c(OC)c2)ccc1O [Curcumin, curcumin]	> 543 µM	> 17.4	30.9 ± 0.3 µM	High (high activity corresponds to EC50 values < 50 µM)	83%	2	0	2	4	1	2	1	0	number of hamsters cured ([1]; topical 1.5 mg/day for 15 days, n = 6): 5 hamsters; treatment failures ([1]; topical daily for 15 days, n = 6): one hamster failed treatment; SI (Selectivity Index = LC50/EC50) ([3]; listed as CUR): exceeds 10; EC50 ([3]; U-937, read-out: in vitro antileishmanial activity (EC50 in mass units)): 11.4 ± 0.1 µg/mL
meglumine antimoniate [reference compound]														number of hamsters cured [1, 10]: 4 hamsters; therapeutic response (hamsters cured) [1, 10]: 67%; increase of lesion in uncured hamster [1, 11]: 80%; reduction in the lesion size in uncured hamster [1, 11]: 14%
O=C(/C=C/C=C/c1ccc2c(c1)OCO2)N1CCCCC1 [Piperine, piperine]	> 701 µM	> 80	8.76 ± 1.4 µM	High (high activity corresponds to EC50 values < 50 µM)	67%	2	0	2	2	1	2	2	0	toxicity towards macrophages [5]: non-toxicity; Cytotoxicity [6]: Low (low cytotoxicity for LC50 values > 200 µM); EC50 [7]: 28 µM; EC50 ([3]; U-937, amastigote stage of L. braziliensis, read-out: in vitro antileishmanial activity (EC50 in mass units)): 2.5 ± 0.4 µg/mL; EC50 ([3]; U-937, read-out: effective concentration (in vitro leishmanicidal activity)): 8 µM
COc1cccc2c1C(=O)c1c(O)c3c(c(O)c1C2=O)C[C@@](O)(C(=O)CO)C[C@@H]3O[C@H]1C[C@H](N)[C@H](O)[C@H](C)O1 [DOXO, Doxorubicin, reference compound]	1.47 ± 0.06 µM													
